{
  "source": "paper PMC11541931",
  "about": "“The structure and function of P5A-ATPases” (Nature Communications, 2024)",
  "target": "T1, CtSpf1 (Thermochaetoides thermophila, UniProt G0S4Z4)",
  "T1 construct": "gene CTHT_0032200; full length, last two C-terminal arginines removed; C-terminal TEV site-GGGGS-GFP-His10, tag kept; made in S. cerevisiae PAP1500; in nanodiscs",
  "T1 sequence (G0S4Z4 entry or part of it)": "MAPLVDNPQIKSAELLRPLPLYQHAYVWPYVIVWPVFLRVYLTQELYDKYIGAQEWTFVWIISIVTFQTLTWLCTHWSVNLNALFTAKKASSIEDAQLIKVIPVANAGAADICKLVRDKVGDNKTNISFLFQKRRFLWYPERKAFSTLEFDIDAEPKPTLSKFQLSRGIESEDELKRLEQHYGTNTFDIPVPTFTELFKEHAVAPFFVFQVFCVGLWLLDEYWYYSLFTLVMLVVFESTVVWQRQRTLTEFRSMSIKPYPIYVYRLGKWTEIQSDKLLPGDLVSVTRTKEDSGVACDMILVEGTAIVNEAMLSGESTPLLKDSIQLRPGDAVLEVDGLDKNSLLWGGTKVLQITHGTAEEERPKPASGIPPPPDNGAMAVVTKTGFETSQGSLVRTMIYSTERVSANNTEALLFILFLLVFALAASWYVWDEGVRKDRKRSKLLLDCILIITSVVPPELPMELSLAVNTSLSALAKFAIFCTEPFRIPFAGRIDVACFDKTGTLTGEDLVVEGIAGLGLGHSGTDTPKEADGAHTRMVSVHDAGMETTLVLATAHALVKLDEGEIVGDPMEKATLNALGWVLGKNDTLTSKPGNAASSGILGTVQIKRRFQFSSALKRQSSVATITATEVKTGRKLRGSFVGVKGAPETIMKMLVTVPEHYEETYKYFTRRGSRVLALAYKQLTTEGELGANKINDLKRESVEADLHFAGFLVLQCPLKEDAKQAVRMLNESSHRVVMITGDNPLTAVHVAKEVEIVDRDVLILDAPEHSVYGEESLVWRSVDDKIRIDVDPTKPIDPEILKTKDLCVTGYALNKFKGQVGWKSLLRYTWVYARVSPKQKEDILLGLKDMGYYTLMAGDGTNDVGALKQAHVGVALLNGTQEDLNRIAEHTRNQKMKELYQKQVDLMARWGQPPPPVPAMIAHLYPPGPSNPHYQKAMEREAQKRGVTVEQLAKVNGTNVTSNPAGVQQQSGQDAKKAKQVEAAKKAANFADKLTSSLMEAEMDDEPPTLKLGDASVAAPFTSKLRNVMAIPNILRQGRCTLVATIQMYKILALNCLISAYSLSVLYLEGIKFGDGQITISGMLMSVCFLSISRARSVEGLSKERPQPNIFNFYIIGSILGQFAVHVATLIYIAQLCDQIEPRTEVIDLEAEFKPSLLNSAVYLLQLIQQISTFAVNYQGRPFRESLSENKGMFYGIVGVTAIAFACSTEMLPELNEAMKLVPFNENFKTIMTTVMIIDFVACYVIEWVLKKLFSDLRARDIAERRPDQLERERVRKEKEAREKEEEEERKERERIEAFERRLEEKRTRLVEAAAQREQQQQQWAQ",
  "experiment": "cryo-EM structure, […] A",
  "conditions": "1 mM ADP with 2 mM AlF4-, Mg2+; MSP1E3D1 nanodisc, pH 7.5; nucleotide-binding site, E1P-ADP state",
  "data": [
    {"smiles": "Nc1ncnc2c1ncn2[C@@H]1O[C@H](COP(=O)(O)OP(=O)(O)O)[C@@H](O)[C@H]1O", "note": "[ADP]", "values": [
      {"measurement": "cryo-EM structure, 3.4 A", "result": "We retrieved two separate maps with ADP-AlF4^− bound"}
    ]}
  ]
}
